We go through one compound from publication PMC13289212, “HIVIL: A human in vitro inflammatory liver model recapitulates immune-associated drug effects with high predictivity” (NAM journal, 2025).

Data set [1] has as its system IL-6. Briefly: IL-6 ELISA in iPSC(F4)-derived HIVIL. It counts as cell-based, human. How it is done:
Enzyme-linked immunosorbent assay (ELISA) for measurement of cytokines: Interleukin-6 (IL-6), interleukin-10 (IL-10) and tumor necrosis factor alpha (TNFα) levels in the media were measured using the corresponding human-based ELISA kits (Abcam, Cambridge, United Kingdom) according to manufacturer’s instructions. The cytokine production from dosed cells was normalized with the viability value from the same well. The normalized cytokine level upon drug treatments was further presented as percentage of DMSO+LPS. Normalization to viability per well ensures that any changes in cytokines are not due to changes in cell numbers upon drug treatment and normalization to DMSO+LPS allows better comparison between different batches of experiments. This normalization approach has been used in previous studies (Rose et al. 2016).

Data set [2] has as its system TNFα. Briefly: TNFα ELISA in HIVIL (iKCs co-cultured with iHeps, LPS, 48 hr). The format is cell-based, human. To be noted: low dose 3.125 μM and 6.25 μM. The text has this:
Human iPSC cell line iPS (IMR90)-4 was purchased from WiCell Research Institute (Madison, WI), and maintained with a feeder-free method according to the instruction from […] Technologies (Vancouver, BC, Canada). The protocol of differentiation towards iKCs and iHeps as described previously with slight modification ([Tasnim et al., 2019]; [Cai et al., 2012]), respectively. […] More details are provided in Supplementary Methods. After differentiation, iKCs was harvested using 0.05 % trypsin-EDTA (Gibco, Waltham, Massachusetts, USA), while iHeps were dissociated with TrypLE^TM (Gibco). iHep suspension was further filtered through a 40 µm cell strainer to remove extracellular matrix clumps. Cell suspension was centrifuged at 1000 rpm for 5 min. For co-culture set up, tissue culture plates were coated with Rat tail collagen I (Gibco) diluted 100-fold in 0.02 N acetic acid, and incubated at 37 °C for 1 h and washed 3 times with PBS. According to the protocol optimized by [Tasnim et al. (2019)], iKCs was firstly seeded at a density of 14,000 per well on 96-well plate with Advanced DMEM (plus supplements) containing 5 % FBS. On the following day, iHeps were added at a density of 35,000 per well in Williams’ Medium E (plus supplements) (iHep: iKCs ratio = 2.5: 1). This reflects the physiological ratio of these cells in vivo under inflammatory conditions ([Tasnim et al., 2021]). Fresh media containing drugs was applied to co-cultures the next day. 50,000 cells were seeded to establish iHeps monoculture. THP-1 cells were kindly obtained from Dr. Eliza Fong and cultured as described by [Zeng et al. (2015)]. Details provided in Supplementary Methods.
(§1) Stock solutions of drugs were prepared in dimethyl sulfoxide (DMSO) and dissolved in medium prior to use. […] For these two drugs, the highest DMSO concentration was 1 %. Supernatant was collected at 48 hr for measurement of cytokines, and remaining cells were subjected to viability assay prior to lysis for RNA extraction.
Enzyme-linked immunosorbent assay (ELISA) for measurement of cytokines: Interleukin-6 (IL-6), interleukin-10 (IL-10) and tumor necrosis factor alpha (TNFα) levels in the media were measured using the corresponding human-based ELISA kits (Abcam, Cambridge, United Kingdom) according to manufacturer’s instructions. The cytokine production from dosed cells was normalized with the viability value from the same well. The normalized cytokine level upon drug treatments was further presented as percentage of DMSO+LPS. […] This normalization approach has been used in previous studies (Rose et al. 2016).
Background: An ELISA detects its analyte on a solid surface through an enzyme-linked reagent.

A short description of data set [3]: AlamarBlue cell viability in HIVIL. To be noted: human. How it is done:
as §1
(In general: Alamar Blue is a resazurin reagent that responds to reducing activity.)

Data set [4] relates to HIVIL (iKCs co-cultured with iHeps). Briefly: AlamarBlue cell viability in HIVIL. How it is done:
as §1

The conditions of data set [5]: FDA-labeling information; ref Chen et al. 2016; cited from earlier work.
Data set [6] concerns IL-6. Briefly: IL-6 ELISA in HIVIL (iKCs co-cultured with iHeps, LPS, 48 hr). The format is cell-based, human. To be noted: HIVIL.
In data set [7] the test system is TNFα. To be noted: ref Shaw et al. 2010; Zou et al. 2009; Bekker et al. 2012; Gandhi et al. 2013; Heidari et al. 2019; cited from earlier work.
Data set [8] in a line: Cell viability of iHeps mono-culture. The format is cell-based. To be noted: human. The text has this: Human iPSC cell line iPS (IMR90)-4 was purchased from WiCell Research Institute (Madison, WI), and maintained with a feeder-free method according to the instruction from […] Technologies (Vancouver, BC, Canada). The protocol of differentiation towards iKCs and iHeps as described previously with slight modification ([Tasnim et al., 2019]; [Cai et al., 2012]), respectively. The re-optimized protocol to generate iKCs is discussed in Results section. More details are provided in Supplementary Methods. After differentiation, iKCs was harvested using 0.05 % trypsin-EDTA (Gibco, Waltham, Massachusetts, USA), while iHeps were dissociated with TrypLE^TM (Gibco). iHep suspension was further filtered through a 40 µm cell strainer to remove extracellular matrix clumps. Cell suspension was centrifuged at 1000 rpm for 5 min. For co-culture set up, tissue culture plates were coated with Rat tail collagen I (Gibco) diluted 100-fold in 0.02 N acetic acid, and incubated at 37 °C for 1 h and washed 3 times with PBS. According to the protocol optimized by [Tasnim et al. (2019)], iKCs was firstly seeded at a density of 14,000 per well on 96-well plate with Advanced DMEM (plus supplements) containing 5 % FBS. On the following day, iHeps were added at a density of 35,000 per well in Williams’ Medium E (plus supplements) (iHep: iKCs ratio = 2.5: 1). […]

Data set [9] relates to IL-6. Briefly: IL-6 ELISA in HIVIL (iKCs co-cultured with iHeps, LPS, 48 hr). The format is cell-based, human. The settings on record: HIVIL co-treated with TVX and LPS.
For data set [10] the following is noted: Cammett et al. 2009, Mendes et al. 2014, cited from earlier work.

Several values for one entry are separate records, joined by “and”; a condition that tells them apart may be missing. Equal entries are not always repeated. Where two headings read alike, the source gives them in different places.

For `N[C@@H]1[C@H]2CN(c3nc4c(cc3F)c(=O)c(C(=O)O)cn4-c3ccc(F)cc3F)C[C@@H]12` [TVX, Trovafloxacin], the “increase in IL-6” value in the data set with IL-6 [1] (6.25 μM) came to 1.2 fold. Moreover, the “inhibition of IL-6 production” value with IL-6 [1] (higher concentrations) is 80% and 97%. The compound further showed a TNFα induction in the data set on TNFα [2] of 1.5 fold. In [3], the viability at 48 hr is 63.4 ± 5%. Besides, the IC50 is 87.7 µM in data set [4] (Homo sapiens, 48 h, read-out: IC50: viability) and 16.2 µM with IL-6 [6] (Homo sapiens, LPS, 48 hr). Moreover, the “viability profiles among iHeps, iKCs and HIVIL” value in [4] (comparison of mono-cultures and co-culture) is listed as “similar”. The DILIrank entry in data set [5] is on record as “most”. Further, the “effect on cytokine production” value with IL-6 [6] (high doses (>25 μM)) is reported as “inhibitory effects”. This compound also came in with an IL-6 induction in the data set with IL-6 [6] (low dose 3.125 μM and 6.25 μM) of 1.5 fold. In the data set on TNFα [7], the “Reported in-vivo (murine) responses: TNFα” value is listed as “TNFα↑”. Further, in data set [8], the viability was found to be 53.7%. The “IL-6 decline after 24 h” value in the data set with IL-6 [9] turned out to be 57.3%. The Cmax is 5 µM in data set [10] (ref in each cell: Ademisoye et al. 2018, Xu et al. 2008, Agabeyoglu and Incecayir 2009, Rojanasthien et al. 2007, Reunanen et al. 1992, Li et al. 2002, Hong-mei et al. 2013, Bareggi et al. 1987, Jiang et al. 2008); 5 µM in data set [10] (ref in each cell: Xu et al. 2008).

As a reminder, the viability is a per cent measure of how many cells are alive, often set against a control. A lower viability goes with more harm to the cells. By IC50 is commonly meant the concentration that gives 50% inhibition. By Cmax is commonly meant the peak of the concentration-time curve.
